Measurements as given in US9693995B2, “Pharmaceutical composition for topical administration” (Ziarco Pharma Ltd., priority 2014, dated 2017).

Columns and labels:
PMA-mediated skin oedema = assay: PMA-induced inflammation in mice (ear thickness by calliper); type: in vivo, Balb/C laboratory mice
Description: Phorbol 12-myristate 13-acetate (PMA) is commonly used to induce inflammation and oedema of the skin of laboratory animals as a preclinical inflammation model.
In the present example PMA was dissolved in a 10% ethanol solution to a final concentration of 0.4 μg per μl. A 10 μl was applied to the ears of Balb/C laboratory mice 1 hour after topical application of 3-{4-[2-{5-chloro-1-(diphenylmethyl)-2-[2-({[2-(trifluoromethyl)benzyl]sulfonyl}amino)ethyl]-1H-indol-3-yl}ethyl]sulfonyl}phenyl}propanoic acid (Compound I) in a 10% ethanol solution at either 0.3% or 3% w/w. As a negative control the vehicle was applied without the active compound. Positive controls were indomethacin (a non-steroidal anti-inflammatory drug) and CAY10650 (a known cPLA2α inhibitor).
The level of oedema was monitored by measurement of ear thickness by calliper at intervals of 1, 3, 6 and 24 hours

[1] = Small scale in vitro permeation/penetration experiment, Franz diffusion cell; type: in vitro ADME, human
Text: Commonly, in vitro skin permeation experiments involve the use of a diffusion cell designed to mimic the physiological and anatomical conditions of skin in situ. The model used in this experiment was the Franz diffusion cell (Finnin et al. Topical and Transdermal Drug Delivery 2012: 85-100, Benson and Watkinson (Eds), incorporated herein by reference). Skin prepared as described below was positioned between the two halves of the cell with the Stratum corneum facing the donor compartment allowing for drug application. The aim of the work was to compare the drug concentrations permeating into and across dermatomed human skin when applied from different formulations/solvent systems. […]
Two solvent systems were selected for a small scale in vitro drug permeation study and was dosed as described below: • (i) The cells were assembled as described above. • (ii) Nine cells were assembled. Two solvent system (n=3), respective placebo solvent system (n=1) and a blank cell (n=1) were assessed during the feasibility experiment. • (iii) The selected solvent systems (6 mg) were applied directly to the surface of the skin with a positive displacement pipette (resulting in a dose of approximately 10 mg/cm^2). […] Weights and volumes applied (to ensure a 6 mg dose) were recorded. • (iv) Receiver fluid (200 μL) was removed at the following time points t=0, 1, 2, 4, 6, 24, 30 and 48 h. […]

cPLA2α = molecular target: T1, cPLA2α (Homo sapiens, UniProt P47712); conditions: cellular and enzymatic assays; cited from earlier work
T1 sequence (P47712 1-749): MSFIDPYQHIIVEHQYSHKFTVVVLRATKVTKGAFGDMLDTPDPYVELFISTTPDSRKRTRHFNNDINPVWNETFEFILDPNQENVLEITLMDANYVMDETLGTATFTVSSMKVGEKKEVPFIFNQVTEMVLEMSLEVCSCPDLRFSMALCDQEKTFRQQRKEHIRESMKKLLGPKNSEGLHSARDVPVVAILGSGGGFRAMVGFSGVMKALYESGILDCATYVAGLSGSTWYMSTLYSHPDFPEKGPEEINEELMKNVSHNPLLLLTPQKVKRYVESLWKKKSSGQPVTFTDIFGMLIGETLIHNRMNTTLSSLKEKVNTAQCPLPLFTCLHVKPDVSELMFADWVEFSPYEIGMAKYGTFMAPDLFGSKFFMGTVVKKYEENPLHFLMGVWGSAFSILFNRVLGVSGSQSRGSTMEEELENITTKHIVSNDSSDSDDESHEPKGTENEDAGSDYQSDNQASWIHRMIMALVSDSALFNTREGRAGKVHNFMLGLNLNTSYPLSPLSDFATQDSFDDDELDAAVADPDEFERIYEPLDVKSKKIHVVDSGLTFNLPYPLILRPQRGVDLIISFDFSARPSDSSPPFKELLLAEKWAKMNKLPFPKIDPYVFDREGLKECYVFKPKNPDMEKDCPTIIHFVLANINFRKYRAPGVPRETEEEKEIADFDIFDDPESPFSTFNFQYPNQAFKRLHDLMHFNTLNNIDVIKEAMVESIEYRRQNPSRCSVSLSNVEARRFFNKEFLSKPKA

PLA2 = conditions: read-out: IC50, inhibition of PLA2 activity; acid extracted intact human neutrophil homogenate; Marshall et al. 1995; cited from earlier work

Row | Compound | efficacy against PMA-mediated skin oedema relative to positive control (PMA-mediated skin oedema; topical Compound I versus orally-dosed indomethacin) | reduction in PMA-mediated skin oedema (PMA-mediated skin oedema; topical, 0.3% or 3% w/w in 10% ethanol solution, 1 hour before PMA on ears, ear thickness at 1, 3, 6 and 24 hours) | total recovery of Compound I ([1]; for each solvent system applied (SS1, SS2), after t=48 h, single skin donor) | Compound I detected in the receiver fluid ([1]; solvent systems SS1 and SS2, 48 h experiment, irrespective of sample volume (200 μL, 1.5 mL), receiver fluid EtOH 20% v/v in water) | inhibition of cPLA2α activity (potency in words) (cPLA2α) | IC50 (PLA2) [µM]
1 | O=C(O)CCc1ccc(S(=O)(=O)CCc2c(CCNS(=O)(=O)Cc3ccccc3C(F)(F)F)n(C(c3ccccc3)c3ccccc3)c3ccc(Cl)cc23)cc1 [Compound I] | comparable to orally-dosed indomethacin | dose-dependent reduction | 90.00-109.72 % of the applied dose | not detected | sub-low nanomolar inhibitor | –
2 | O=C(O)c1ccccc1Oc1ccc(C(F)(F)F)cc1NS(=O)(=O)c1cc(C(F)(F)F)cc(C(F)(F)F)c1 [SB 203347] | – | – | – | – | – | 4.7
